Data from PubChem BioAssay (NCI).
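GI50 marks 50% less growth. The concentration for full growth arrest is given as TGI.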

Columns and labels:
Assay in all cases: growth of human tumour cells (NCI), 384-well format
KM12 colon = tested on: KM12 colon
OVCAR-3 ovarian = tested on: OVCAR-3 ovarian
HL-60(TB) leukemia = tested on: HL-60(TB) leukemia
SK-OV-3 ovarian = tested on: SK-OV-3 ovarian
UACC-62 melanoma = tested on: UACC-62 melanoma
IGROV1 ovarian = tested on: IGROV1 ovarian
SW-620 colon = tested on: SW-620 colon
NCI-H322M lung = tested on: NCI-H322M lung
SF-539 CNS = tested on: SF-539 CNS
NCI-H226 lung = tested on: NCI-H226 lung
HOP-62 NSCLC = tested on: HOP-62 NSCLC
MDA-MB-231 breast = tested on: MDA-MB-231 breast
DU-145 prostate = tested on: DU-145 prostate

COc1nn(C)cc1Nc1nccc(-c2c[nH]c3c(NC(=O)[C@@H](C)N4CCN(C)CC4)cccc23)n1
GI50 (KM12 colon): 20.1 µM
TGI (KM12 colon): 61.2 µM
GI50 (OVCAR-3 ovarian): 18.7 µM
TGI (OVCAR-3 ovarian): 51.2 µM
GI50 (HL-60(TB) leukemia): 11.8 µM
TGI (HL-60(TB) leukemia): 24.1 µM
GI50 (SK-OV-3 ovarian): 9.78 µM
TGI (SK-OV-3 ovarian): 31.6 µM
GI50 (UACC-62 melanoma): 17.7 µM
TGI (UACC-62 melanoma): 38.2 µM
GI50 (IGROV1 ovarian): 18.8 µM
TGI (IGROV1 ovarian): 52.4 µM
GI50 (SW-620 colon): 21 µM
TGI (SW-620 colon): 40.3 µM
GI50 (NCI-H322M lung): > 52.3 µM
TGI (NCI-H322M lung): > 100 µM
GI50 (SF-539 CNS): 14.8 µM
TGI (SF-539 CNS): 30.3 µM
GI50 (NCI-H226 lung): 9.15 µM
TGI (NCI-H226 lung): 31.6 µM
GI50 (HOP-62 NSCLC): 29.7 µM
TGI (HOP-62 NSCLC): > 89.1 µM
GI50 (MDA-MB-231 breast): 28 µM
TGI (MDA-MB-231 breast): > 95.5 µM
GI50 (DU-145 prostate): 40.4 µM
TGI (DU-145 prostate): > 100 µM
